According to PubChem BioAssay (NCI):
Several values for one entry are separate records, joined by “and”; a condition that tells them apart may be missing. Identical values can stand only once.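 Exposure lasted 48 hours, with cells grown in 96-well plates and compounds tested at five concentrations. The concentration for 50% growth inhibition is given as GI50. At the TGI there is no net growth.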

Columns and labels:
Assay in all cases: DTP human tumour cell line panel, 48 h
[1] = system: NCI-H460 lung
[2] = system: HT29 colon
[3] = system: RXF 393 renal
[4] = system: SNB-19 CNS
[5] = system: TK-10 renal
[6] = system: T-47D breast
[7] = system: MDA-MB-435
[8] = system: MALME-3M melanoma
[9] = system: RPMI-8226 leukemia
[10] = system: SF-295 CNS
[11] = system: SW-620 colon
[12] = system: A549 NSCLC
[13] = system: NCI-H23 lung
[14] = system: UO-31 renal
[15] = system: A498 renal
[16] = system: OVCAR-3 ovarian
[17] = system: BT-549 breast
[18] = system: COLO 205 colon
[19] = system: HOP-92 NSCLC
[20] = system: MOLT-4 leukemia
[21] = system: IGROV1 ovarian
[22] = system: OVCAR-8 ovarian
[23] = system: SN12C renal
[24] = system: 786-0 renal
[25] = system: OVCAR-5 ovarian
[26] = system: ACHN renal
[27] = system: PC-3 prostate
[28] = system: SK-OV-3 ovarian
[29] = system: K-562 leukemia
[30] = system: M14 melanoma
[31] = system: SF-268 CNS
[32] = system: MDA-MB-231 breast
[33] = system: UACC-62 melanoma
[34] = system: HCT-15 colon
[35] = system: NCI-H522 lung
[36] = system: KM12 colon
[37] = system: UACC-257 melanoma
[38] = system: U251 CNS
[39] = system: HCC-2998 colon
[40] = system: NCI/ADR-RES ovarian
[41] = system: LOX IMVI melanoma
[42] = system: HL-60(TB) leukemia
[43] = system: MCF7 breast
[44] = system: EKVX NSCLC
[45] = system: HS 578T breast
[46] = system: OVCAR-4 ovarian
[47] = system: HOP-62 NSCLC
[48] = system: HCT-116 colon
[49] = system: SK-MEL-2 melanoma
[50] = system: NCI-H226 lung
[51] = system: SK-MEL-28 melanoma
[52] = system: SF-539 CNS
[53] = system: CCRF-CEM leukemia
[54] = system: DU-145 prostate
[55] = system: SR leukemia
[56] = system: SK-MEL-5 melanoma

COC(=O)N[C@H]1C=C[C@@H]2/C=C(C)/C=C/[C@@H](C)[C@H]([C@H](C)[C@H](O)[C@@H](C)NC(C)=O)OC(=O)/C=C/C=C(C)\C=C\[C@]2(C)C1
GI50 [1]: 13.5 nM and 6.97 nM
TGI [1]: > 45300 nM
GI50 [2]: 6.18 nM and 4.53 nM
TGI [2]: > 45300 nM
GI50 [3]: 4.49 nM and 4.53 nM
TGI [3]: 16200 nM
GI50 [4]: 118 nM and 16.4 nM
TGI [4]: > 45300 nM
GI50 [5]: 5120 nM and 5680 nM
TGI [5]: > 45300 nM
GI50 [6]: 6.96 nM and 4.53 nM
TGI [6]: > 45300 nM
GI50 [7]: 3.74 nM and 4.53 nM
TGI [7]: 10600 nM
GI50 [8]: 1190 nM and 261 nM
TGI [8]: 10800 nM
GI50 [9]: 17.3 nM and 4.59 nM
TGI [9]: 21000 nM
GI50 [10]: 3.71 nM and 4.53 nM
GI50 [11]: 8.92 nM and 4.53 nM
TGI [11]: 16200 nM
GI50 [12]: 31.2 nM and 4.53 nM
TGI [12]: > 45300 nM
GI50 [13]: 94.3 nM and 96.4 nM
TGI [13]: > 45300 nM
GI50 [14]: 7.47 nM and 4.53 nM
TGI [14]: 28700 nM
GI50 [15]: 13.2 nM and 13.5 nM
GI50 [16]: 172 nM and 635 nM
TGI [16]: 16500 nM
GI50 [17]: 18.7 nM and 12.6 nM
TGI [17]: 42100 nM
GI50 [18]: 14 nM and 11.3 nM
TGI [18]: 7070 nM
GI50 [19]: 2.11 nM and 4.53 nM
TGI [19]: 44 nM and 26.8 nM
GI50 [20]: 8510 nM
TGI [20]: > 45300 nM
GI50 [21]: 24.8 nM and 4.53 nM
TGI [21]: > 45300 nM
GI50 [22]: 17.9 nM and 7.45 nM
TGI [22]: > 45300 nM
GI50 [23]: 8.13 nM and 5.18 nM
TGI [23]: > 45300 nM
GI50 [24]: 16.5 nM and 7.46 nM
TGI [24]: > 45300 nM
GI50 [25]: 8010 nM and 6550 nM
TGI [25]: > 45300 nM
GI50 [26]: 4.53 nM
TGI [26]: > 45300 nM
GI50 [27]: 7.85 nM and 4.53 nM
TGI [27]: > 45300 nM
GI50 [28]: 6.7 nM
GI50 [29]: 14.6 nM
TGI [29]: > 45300 nM
GI50 [30]: 3.69 nM and < 4.53 nM
TGI [30]: 35.8 nM and < 4.53 nM
TGI [31]: > 45300 nM
GI50 [32]: 2.28 nM and 4.53 nM
GI50 [33]: 18.9 nM and 19.6 nM
TGI [33]: 8920 nM
GI50 [34]: 8.93 nM and 7.36 nM
TGI [34]: > 45300 nM
GI50 [35]: 61.3 nM and 38.8 nM
TGI [35]: 19200 nM
GI50 [36]: 9.59 nM and 13.5 nM
TGI [36]: > 45300 nM
GI50 [37]: 29 nM and 4.53 nM
TGI [37]: > 45300 nM
GI50 [38]: 4.72 nM and 4.53 nM
TGI [38]: 24700 nM
TGI [39]: > 45300 nM
GI50 [40]: 28.2 nM and 16.1 nM
TGI [40]: > 45300 nM
GI50 [41]: 2.94 nM and 4.53 nM
TGI [41]: 11 nM and 4.75 nM
GI50 [42]: 7.22 nM and 5.48 nM
TGI [42]: 19600 nM
GI50 [43]: 8.26 nM and 4.53 nM
TGI [43]: > 45300 nM
TGI [44]: > 45300 nM
GI50 [45]: 29.3 nM and 16.5 nM
TGI [45]: > 45300 nM
GI50 [46]: 5920 nM
TGI [46]: > 45300 nM
GI50 [47]: 70.5 nM and 27.8 nM
TGI [47]: > 45300 nM
GI50 [48]: 3.71 nM and 4.53 nM
TGI [48]: > 45300 nM
GI50 [49]: 7190 nM
TGI [49]: 33100 nM
GI50 [50]: 28.3 nM and 5.04 nM
TGI [50]: 9150 nM
GI50 [51]: 12.1 nM and 10.2 nM
TGI [51]: 13300 nM
GI50 [52]: 4.13 nM and 4.53 nM
TGI [52]: 6550 nM
GI50 [53]: 2580 nM
TGI [53]: > 45300 nM
TGI [54]: > 45300 nM
GI50 [55]: 7 nM and 4.53 nM
TGI [55]: 13400 nM
GI50 [56]: 3.65 nM and 4.53 nM
TGI [56]: 29.1 nM and 15 nM
